Numbered stars: 1 amine (or outer) side, 2 acyl side, 3 side chain; on linkers, the order of the positions; unused ones are H or OH. Bridge positions count the residues as written; N and C are the ends. Square brackets hold non-standard residues; d marks the D form. Peptide text beside a SMILES is read from it. I, II: the chains in the order shown. * marks the point of attachment. Actinocin(9to1) = Cc1c2oc3c(C)ccc(C(=O)[*:1])c3nc-2c(C(=O)[*:2])c(N)c1=O; Sta = CC(C)C[C@H](N)[C@@H](O)CC(=O)O; NMeV = CN[C@H](C(=O)O)C(C)C; Isovaleryl = CC(C)CC(=O)*; Cbz = O=C(OCc1ccccc1)*; Sar = CNCC(=O)O
Tests used:
Hsp70 = Hsp70 levels by denaturing immunoprecipitation of [3H]-leucine radiolabeled HepG2 cells; format: cell-based, human; conditions: for Induction of Hsp70 by protease inhibitors: HepG2, 4 hours pre-treatment, ALLN, ALLM 40 μg/ml, leupeptin, pepstatin A 50 μg/ml, E-64d 25 μg/ml, PMSF 1 mM, aprotinin 100 KIU/ml, Benz 1 mM, CIP 200 μM
Method: The HepG2 cell culture conditions were maintained as previously described (Dixon, et al., 1991). The cells were seeded into collagen-pre-coated dishes or six-well tissue culture plates and grown in complete medium containing minimum essential medium (MEM) with 0.1 mM nonessential amino acids, 1.0 mM sodium pyruvate, penicillin/streptomycin, and 10% fetal bovine serum. Cells were fed fresh complete medium every 3 days and maintained in a 5% CO2 incubator. All experiments were performed by using exponentially growing cells at 90-95% confluency. For heat shock treatment, the dishes were sealed with Parafilm and immersed in a water bath at 42° C. for indicated durations of time. Cells were incubated with ALLN alone at indicated concentrations or combined with other chemicals at 37° C. Cells were also incubated with different protease inhibitors alone at indicated concentrations or combined with other chemicals at 37° C.
(§1) HepG2 cells were preincubated for 4 hours in serum-free MEM and then radiolabeled with ^3 H-Leucine (150 μCi/ml) in a serum-free, leucine-free medium. Preincubation and labeling media each contained either 1.5% bovine serum albumin (BSA) alone, or BSA plus ALLN (40 μg/ml except as otherwise indicated), or BSA plus other protease inhibitors at concentrations indicated in the figure legends. At the indicated times, cells were removed from the 37° C. incubator and placed on ice, washed with cold phosphate-buffer saline (PBS) twice and lysed with lysis buffer containing 1% Triton X-100 (TX100), 1% deoxycholic acid (DOC) and 0.1% SDS in PBS containing proteinase inhibitors: 2 mM phenylmethylsulfonyl fluoride (PMSF); 2 μg/ml ALLN; 2 μg/ml leupeptin; and 2 μg/ml aprotinin. After a 30 min. incubation with lysis buffer at 4° C., the lysates were centrifuged at 14,000 g in a microcentrifuge for 5 min., and the supernatants were adjusted to 1% SDS concentration and boiled for 5 min. to denature the proteins. 1% TX100 was then added to dilute the lysates to a final concentration of 0.1% SDS. Cell lysates containing equal amounts of trichloroacetic acid (TCA)-insoluble radioactivity were used for immunoprecipitations by incubating with individual monoclonal antibody (1 μg/ml) for 2.5 hours at 4° C. Protein-A Sepharose 4B was added afterwards and the lysates incubated for another 1.5 hours at 4° C. to collect the immunocomplexes. After washing four times with 1×NET buffer (containing 0.5% TX100, 0.1% SDS), the immunocomplexes were mixed with sample buffer and boiled for 5 min. Following centrifugation, the supernatants were aliquoted for scintillation counting and for 3-15% gradient polyacrymide gel electrophoresis (SDS-PAGE) . The gels were later subjected to fluorography. All values are presented as the mean ± S.D. from three individual experiments except as otherwise indicated.
Denaturing immunoprecipitation was chosen because Hsp70 is a major cytosolic chaperone protein and it is co-immunoprecipitated with a number of other proteins under non-denaturingconditions (Beckmann, et al., 1990; Zhou, et al., 1995).

cathepsin B = cathepsin B (Homo sapiens, UniProt P07858); conditions: Rock, et al., 1994; cited from earlier work
proteasomes = conditions: Rock, et al., 1994; cited from earlier work
apoB = conditions: Sakata, et al., 1993, unpublished data; cited from earlier work
[1] = test system: 3-hydroxy-3-methylglutaryl-coenzyme A (HMG-CoA) reductase; conditions: Inoue, et al., 1991; cited from earlier work
calpain = conditions: Rock, et al., 1994; cited from earlier work
hsp70 (hsp72) mRNA = assay: Northern blot of hsp70 (hsp72) mRNA in HepG2 cells; format: cell-based, human; conditions: with ALLN 40 μg/ml, 4 hours; actinomycin D 10 μg/ml; cycloheximide 50 μg/ml
Method: HepG2 cells were treated with serum-free MEM containing either 1.5% BSA alone (Control, lane1), BSA plus 40 μg/ml of ALLN (ALLN, lane2), ALLN and 10 μg/ml of actinomycin D (A+AD, lane3), or ALLN and 50 μg/ml of cycloheximide (A+CXM, lane4). After 4 hours treatment at 37° C., cells were harvested. (B). HepG2 cells were treated with 40 μg/ml of ALLN in the serum-free MEM for up to 0 hour (lane1), 1 hour (lane2), 2 hours (lane3), and 3 hours (lane4) and then harvested without recovery. Or after treatment for 3 hours in the presence of ALLN as above, the ALLN containing medium were removed, cells were washed and fed fresh medium containing only BSA for recovery of up to 1 hour (lane5), 3 hours (lane6), 5 hours (lane7) or 7 hours (lane8). The total RNA was prepared, and equal amounts of the samples were loaded and run on a 1% formaldehyde-agarose gel, blotted onto a nylon membrane, and subsequently hybridized with specific synthetic oligonucleotide probes for hsp70 mRNA as described under Experimental Details. The position of 28S and 18S rRNA are shown for reference.
Total RNA was prepared using the procedure of Chomczynski and Sacchi (Chomczynski, et al., 1987) and a commercially prepared reagent, TRISOLV™ (Biotecx Laboratories Inc., Tex.) . Equal amounts of tRNA samples (10 μg) were size-fractionated on a 1% agarose-formaldehyde gel according to the methods described (Maniatis, et al., 1982) and transferred to a piece of QIAGEN plus nylon membrane. To determine loading and transfer efficiency, RNA was stained with ethidium bromide before and after transfer. The membrane was baked for 30 min. at 80° C. in vacuo (a vacuum) followed by UV cross-linking. It was then incubated for 4 hours at 65° C. in a prehybridization mixture containing 10% dextran sulfate, 1% SDS, 1M sodium chloride, 50 mM Tris-HCl (pH 7.5) and 100 μg/ml denatured salmon sperm DNA. Hybridization was carried out for 18 hours at 65° C. in the same buffer with a ^32 P-labeled (1×10^6 cpm/ml) 40-mer oligonucleotide probe to the untranslated 5' region of a human hsp70 gene (Oncogene Science). […] The membrane was then washed four times with 2×SSC, 0.1% SDS at room temperature, one time at 65° C. for 30 min., and one time at room temperature again for 5 min., and finally rinsed with 2×SSC at room temperature. This membrane was air dried and exposed to X-ray film at -80° C. for 48 hours.
Total RNA was isolated from HepG2 cells which had been incubated for 4 hours at 37° C. (FIG. 5A) with MEM containing BSA alone (Control, lane1), BSA plus 40 μg/ml of ALLN (ALLN, lane2), BSA plus ALLN and […] of actinomycin D (A+AD, lane3) or BSA plus ALLN and 50 μg/ml of cycloheximide (A+CXM, lane4). A radioprobe containing a unique sequence specific for the 5' untranslated region of hsp72 (inducible form) (Freeman et al., 1993) was used for Northern blot analysis.

HSF1 = assay: EGS cross-linking and Western blot of HSF1 oligomeric forms in HepG2 cells; format: cell-based, human; conditions: cycloheximide 50 μg/ml with ALLN 40 μg/ml, 2 hours
Method: FIGS. 6A-6B: ALLN affects the trimerization of HSF. HepG2 cells were treated with serum-free MEM containing 1.5% BSA for 2 hours at 37° C. without any additions (lane1), at 37 ° C. but containing 40μg/ml of ALLN in the medium (lane2), at 37° C. in a medium containing both ALLN and 50 μg/ml of cycloheximide (lane3) , at 42° C. alone (lane4), or at 42° C. plus cycloheximide in the medium (lane5). Cell lysates were prepared as described under Experimental Details. The lysates were either directly run on the SDS-PAGE (A) to show the steady-state protein levels of HSF1 or subjected to cross-linking with ethylene glycol bis sucrinimidylsuccinate (EGS) before running the gel (B) to show the oligomeric forms of HSF1. The proteins were then transfered to a nitrocellulose membrane and immunoblotted with anti-human HSF1 antibody. Arrows on the right side indicates the monomeric, dimeric or trimeric forms of HSF1, respectively. This experiment was repeated three times with identical results.
For measurement of the steady-state HSF1 protein levels, whole cell extracts were prepared by lysing the cells directly with 2×SDS-sample buffer (Maniatis, et al., 1982). For chemical cross-linking experiments, whole-cell extracts were prepared as described (Mosser, et al., 1988). Briefly, the cold PBS-washed cell pellets were quickly and repeatedly frozen in liquid nitrogen. […]

HepG2 cells = assay: Total incorporation of radiolabel (TCA cpm) as indicator of cell toxicity, HepG2; format: cell-based, human; conditions: HepG2, 4 hours; MG132 10 or 30 μM; lactacystin 10 μM
Method: as §1

CC(=O)N[C@@H](CC(C)C)C(=O)N[C@@H](CC(C)C)C(=O)N[C@H](C=O)CCCNC(=N)N [Leupeptin, leupeptin]
Induction of Hsp70 by protease inhibitors (Hsp70): ineffective

CSCC[C@@H](C=O)NC(=O)[C@H](CC(C)C)NC(=O)[C@H](CC(C)C)NC(C)=O [ALLM, N-acetyl-leucyl-leucyl-methioninal] (Ac-Leu-Leu-Met-aldehyde)
Ability to induce Hsp70 levels compared with ALLN (Hsp70; HepG2, 40 μg/ml, 4 hours): less ability to induce Hsp70 levels | Induction of Hsp70 by protease inhibitors (Hsp70): significantly induce | Activity against cathepsin B (cathepsin B): significant activities | Inhibition of proteasomes (proteasomes): potent inhibitors | Protection of apoB (apoB): less effectively | Protection of HMG-CoA reductase [1]: less effectively | Activity against calpain (calpain): significant activities

C[C@@H]1C[C@@H]([C@H](O)CC2CC(=O)NC(=O)C2)C(=O)[C@@H](C)C1 [cycloheximide]
Effect of co-treatment on ALLN-induced hsp70 (hsp72) mRNA (hsp70 (hsp72) mRNA): abolished | Effect of co-treatment on ALLN-induced HSF1 trimerization (HSF1): abolished the effect of ALLN on HSF1 trimerization

Cc1c2oc3c(C)ccc(C(=O)N[C@@H]4C(=O)N[C@H](C(C)C)C(=O)N5CCC[C@H]5C(=O)N(C)CC(=O)N(C)[C@@H](C(C)C)C(=O)O[C@@H]4C)c3nc-2c(C(=O)N[C@@H]2C(=O)N[C@H](C(C)C)C(=O)N3CCC[C@H]3C(=O)N(C)CC(=O)N(C)[C@@H](C(C)C)C(=O)O[C@@H]2C)c(N)c1=O [actinomycin D] (I: T[dV]P[Sar][NMeV] / II: T[dV]P[Sar][NMeV]; ester I:1-I:C, II:1-II:C; linker I:N-II:N via Actinocin(9to1))
Effect of co-treatment on ALLN-induced hsp70 (hsp72) mRNA (hsp70 (hsp72) mRNA): abolished the effects of ALLN

CC(C)CC(=O)N[C@H](C(=O)N[C@H](C(=O)N[C@@H](CC(C)C)[C@@H](O)CC(=O)N[C@@H](C)C(=O)N[C@@H](CC(C)C)[C@@H](O)CC(=O)O)C(C)C)C(C)C [pepstatin] (Isovaleryl-VV[Sta]A[Sta]-OH)
Induction of Hsp70 by protease inhibitors (Hsp70): No induction

CC(C)C[C@@H](C=O)NC(=O)[C@H](CC(C)C)NC(=O)[C@H](CC(C)C)NC(=O)OCc1ccccc1 [MG132, Cbz-leucyl-leucyl-leucinal] (Cbz-Leu-Leu-Leu-aldehyde)
Induction of Hsp70 levels by proteasome inhibitors (Hsp70; HepG2, 4 hours, MG132 10 μM or 30 μM, lactacystin 10 μM, 30 min radiolabeling): induced Hsp70 levels dramatically | Toxicity to the cells (TCA-precipitable radioactivities) (HepG2 cells): without obvious toxicity

O=S(=O)(F)Cc1ccccc1 [PMSF, phenylmethylsulfonyl fluoride]
Induction of Hsp70 by protease inhibitors (Hsp70): No induction

aprotinin
Induction of Hsp70 by protease inhibitors (Hsp70): No induction
